Measurements taken from PubChem BioAssay AID743117 (The Scripps Research Institute Molecular Screening Center, 2013).
Activity calls are given as the source filed them.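 Rule for the calls: active = 50% or more inhibition of both lipases LYPLA1 and LYPLA2, with off-target enzymes other than ABHD6 below 50%; inactive = below 50% on either lipase, or hitting an off-target enzyme.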

Key:
Test in all cases: LYPLA1/LYPLA2 inhibition with serine hydrolase anti-target selectivity, late-stage follow-up, selectivity assay for LYPLA1/LYPLA2 inhibitor project, cell lysate, mouse brain membrane proteome, FP-Rh fluorescence, powders (AID 743117)
[1] = target: Monoacylglycerol lipase ABHD6 (Mus musculus) (UniProt Q8R2Y0); conditions: gel-based ABPP FP-Rh fluorescence, measured here: ABHD6 Selectivity, anti-target concentration >50% inhibition, stronger effect = lower value
[2] = system: LYPLA1; conditions: gel-based ABPP FP-Rh fluorescence, at 100 µM (top of the series)
[3] = system: LYPLA2; conditions: gel-based ABPP FP-Rh fluorescence, at 100 µM (top of the series)
[4] = system: MAGL Selectivity; conditions: gel-based ABPP FP-Rh fluorescence, measured here: MAGL Selectivity, anti-target concentration >50% inhibition, stronger effect = lower value
[5] = system: FAAH Selectivity; conditions: gel-based ABPP FP-Rh fluorescence, measured here: FAAH Selectivity, anti-target concentration >50% inhibition, stronger effect = lower value
[6] = system: ABHD12 Selectivity; conditions: gel-based ABPP FP-Rh fluorescence, measured here: ABHD12 Selectivity, anti-target concentration >50% inhibition, stronger effect = lower value
[7] = target: ABHD4 Selectivity (UniProt Q8VD66); conditions: gel-based ABPP FP-Rh fluorescence, measured here: ABHD4 Selectivity, anti-target concentration >50% inhibition, stronger effect = lower value
[8] = system: APEH Selectivity; conditions: gel-based ABPP FP-Rh fluorescence, measured here: APEH Selectivity, anti-target concentration >50% inhibition, stronger effect = lower value

Sequence of ABHD4 Selectivity (Q8VD66 whole entry, looked up): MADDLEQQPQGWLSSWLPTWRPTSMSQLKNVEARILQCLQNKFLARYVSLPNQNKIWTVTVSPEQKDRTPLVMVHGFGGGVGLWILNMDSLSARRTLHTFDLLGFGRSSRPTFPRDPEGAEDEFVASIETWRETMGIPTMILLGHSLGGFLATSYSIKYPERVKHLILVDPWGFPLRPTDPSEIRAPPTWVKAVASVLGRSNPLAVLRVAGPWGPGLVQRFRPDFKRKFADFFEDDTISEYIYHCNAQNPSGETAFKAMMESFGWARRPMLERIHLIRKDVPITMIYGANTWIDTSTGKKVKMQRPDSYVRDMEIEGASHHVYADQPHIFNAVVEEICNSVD
Sequence of Monoacylglycerol lipase ABHD6 (Mus musculus) (Q8R2Y0 whole entry, looked up): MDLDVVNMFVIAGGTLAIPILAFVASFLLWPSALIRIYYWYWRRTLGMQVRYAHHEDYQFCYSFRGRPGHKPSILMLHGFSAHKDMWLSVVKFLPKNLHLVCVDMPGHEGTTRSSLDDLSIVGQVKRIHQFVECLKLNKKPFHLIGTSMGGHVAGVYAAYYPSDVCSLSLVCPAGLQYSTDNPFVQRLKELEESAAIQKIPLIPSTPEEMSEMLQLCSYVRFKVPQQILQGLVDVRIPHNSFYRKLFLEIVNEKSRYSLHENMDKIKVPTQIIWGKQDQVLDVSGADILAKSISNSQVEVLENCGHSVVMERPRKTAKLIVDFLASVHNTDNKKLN

SMILES | concentration for >50% inhibition [1] [µM] | inhibition [2] | inhibition [3] | concentration for >50% inhibition [4] [µM] | concentration for >50% inhibition [5] [µM] | concentration for >50% inhibition [6] [µM] | concentration for >50% inhibition [7] [µM] | concentration for >50% inhibition [8] [µM]
Cc1ccc(C(=O)N2CCN3C(=O)N(OC(=O)N4CCC(CCc5ccc(Cl)cc5)CC4)C(=O)C3C2)cc1 (stereo not given) | 0.1 | 100% | 100% | 100 | 10 | 10 |  | 
O=C(ON1C(=O)C2CN(C(=O)N3CCCCC3)CCN2C1=O)N1CCC(CCc2ccc(Cl)cc2)CC1 (stereo not given) | 0.1 | 100% | 100% | 10 | 1 | 10 | 10 | 
CC(C)(C)CC(=O)N1CCN2C(=O)N(OC(=O)N3CCC(CCc4ccc(Cl)cc4)CC3)C(=O)C2C1 (stereo not given) | 0.1 | 100% | 100% | 10 | 1 | 10 | 100 | 
O=C(ON1C(=O)C2CN(C(=O)N3CCCC3)CCN2C1=O)N1CCC(CCc2ccc(Cl)cc2)CC1 (stereo not given) | 0.1 | 100% | 100% | 100 | 1 | 100 | 100 | 
CCN(C(=O)C1CCN(C(=O)ON2C(=O)C3CN(C(=O)OC(C)(C)C)CCN3C2=O)CC1)c1ccccc1 (stereo not given) | 0.1 | 100% (inactive) | 100% (inactive) |  |  |  |  | 
O=C(ON1C(=O)C2CN(C(=O)N3CCOCC3)CCN2C1=O)N1CCC(CCc2ccc(Cl)cc2)CC1 (stereo not given) | 0.1 | 100% | 100% | 100 | 10 | 100 |  | 
O=C(ON1C(=O)C2CN(Cc3ccc(Br)cc3)CCN2C1=O)N1CCC(CCc2ccc(Cl)cc2)CC1 (stereo not given) | 0.1 | 90% (inactive) | 90% (inactive) | 100 | 1 |  | 1 | 
COC(=O)C1CCN(C(=O)ON2C(=O)C3CN(C(=O)OC(C)(C)C)CCN3C2=O)CC1 (stereo not given) | 0.1 | 25% (inactive) | 25% (inactive) |  |  |  |  | 
O=C(ON1C(=O)C2CN(CCc3ccccc3)CCN2C1=O)N1CCC(CCc2ccc(Cl)cc2)CC1 (stereo not given) | 0.1 | 100% (inactive) | 100% (inactive) | 10 | 10 |  | 10 | 
O=C(Cc1ccccc1)N1CCN2C(=O)N(OC(=O)N3CCC(CCc4ccc(Cl)cc4)CC3)C(=O)C2C1 (stereo not given) | 0.1 | 100% | 100% | 10 | 1 |  |  | 
CC(C)(C)OC(=O)N1CCN2C(=O)N(OC(=O)N3CCN(C(c4ccc(Cl)cc4)c4ccc(Cl)cc4)CC3)C(=O)C2C1 (stereo not given) | 0.1 | 60% (inactive) | 60% (inactive) |  |  |  |  | 
CC(C)(C)OC(=O)N1CCN2C(=O)N(OC(=O)N3CCN(CCc4ccccc4)CC3)C(=O)C2C1 (stereo not given) | 0.1 | 90% (inactive) | 75% (inactive) |  | 100 | 100 |  | 
CC(C)(C)OC(=O)N1CCN2C(=O)N(OC(=O)N3CCOCC3Cc3ccccc3)C(=O)C2C1 (stereo not given) | 0.1 | 0% (inactive) | 0% (inactive) |  |  |  |  | 
CC(C)(C)OC(=O)N1CCN2C(=O)N(OC(=O)N3CCCCC3)C(=O)C2C1 (stereo not given) | 0.1 | 25% (inactive) | 25% (inactive) |  |  |  |  | 100
CC(C)(C)OC(=O)N1CCN2C(=O)N(OC(=O)N3CCC(CCc4ccc(Cl)cc4)CC3)C(=O)C2C1 (stereo not given) | 0.1 | 100% | 100% | 100 | 1 | 10 |  | 
O=C(ON1C(=O)C2CN(C(=O)c3ccc(Br)cc3)CCN2C1=O)N1CCC(CCc2ccc(Cl)cc2)CC1 (stereo not given) | 0.1 | 100% | 100% | 100 | 10 | 10 | 100 | 
CN(C)c1ccc(C(=O)N2CCN3C(=O)N(OC(=O)N4CCC(CCc5ccc(Cl)cc5)CC4)C(=O)C3C2)cc1 (stereo not given) | 0.1 | 100% | 100% |  | 10 | 10 |  | 
COc1ccc(C(=O)N2CCN3C(=O)N(OC(=O)N4CCC(CCc5ccc(Cl)cc5)CC4)C(=O)C3C2)cc1 (stereo not given) | 0.1 | 100% | 100% | 10 | 10 | 10 |  | 
CC(C)(C)OC(=O)N1CCN2C(=O)N(OC(=O)N3CCC(C(=O)Nc4ccccc4)CC3)C(=O)C2C1 (stereo not given) | 0.1 | 50% (inactive) | 25% (inactive) |  | 100 |  |  | 
O=C(ON1C(=O)C2CN(C(=O)c3ccc(F)c([N+](=O)[O-])c3)CCN2C1=O)N1CCC(CCc2ccc(Cl)cc2)CC1 (stereo not given) | 0.1 | 100% | 100% | 100 | 10 | 10 |  | 
